Measured values: ChEMBL document CHEMBL4613212, “Insights of synthetic analogues of anti-leprosy agents” (Bioorg Med Chem, 2019)
Converted amounts (≈) assume the structure as drawn.

Key:
[1] = system: Mycobacterium tuberculosis; experiment: Antimycobacterial activity against Mycobacterium tuberculosis H37Rv infected in CF-1 mouse assessed as change in survival time at 2 mg/kg administrated daily for 14 days with food relative to control; type: functional
[2] = system: Mycobacterium tuberculosis; experiment: Antimycobacterial activity against Mycobacterium tuberculosis H37Rv infected in CF-1 mouse assessed as change in survival time at 16 mg/kg administrated daily for 14 days with food relative to control; type: functional
[3] = system: Mycobacterium tuberculosis; experiment: Antimycobacterial activity against Mycobacterium tuberculosis H37Rv infected in CF-1 mouse assessed as change in survival time at 9 mg/kg administrated daily for 14 days with food relative to control; type: functional
[4] = system: Mycobacterium tuberculosis; experiment: Antimycobacterial activity against Mycobacterium tuberculosis H37Rv infected in CF-1 mouse assessed as change in survival time at 5 mg/kg administrated daily for 14 days with food relative to control; type: functional
Mycobacterium leprae [5] = experiment: Anti-leprotic activity against Mycobacterium leprae infected in 538 CBA mouse assessed as number of Mycobacterium leprae in paw pads at 4 mg/kg administrated via gastric tube 5 times a week and measured 7 months post infection; type: functional
Mycobacterium leprae [6] = experiment: Anti-leprotic activity against Mycobacterium leprae infected in CBA mouse assessed as number of Mycobacterium leprae in paw pads at 30 mg/kg administrated 5 times a week and measured 7.5 months post infection (reference value: 3.91 +/- 0.33 10^5); type: functional
Mycobacterium leprae [7] = experiment: Anti-leprotic activity against Mycobacterium leprae infected in CBA mouse assessed as number of Mycobacterium leprae in paw pads at 10 mg/kg administrated 5 times a week and measured 7.5 months post infection (reference value: 3.91 +/- 0.33 10^5); type: functional
[8] = system: Mycobacterium tuberculosis; experiment: Antimycobacterial activity against Mycobacterium tuberculosis H37Rv infected in CF-1 mouse assessed as change in survival time at 4 mg/kg administrated daily for 14 days with food relative to control; type: functional
[9] = system: Mycobacterium tuberculosis; experiment: Antimycobacterial activity against Mycobacterium tuberculosis H37Rv infected in CF-1 mouse assessed as change in survival time at 6 mg/kg administrated daily for 14 days with food relative to control; type: functional
[10] = system: Mycobacterium tuberculosis; experiment: Antimycobacterial activity against Mycobacterium tuberculosis H37Rv infected in CF-1 mouse assessed as change in survival time at 850 mg/kg administrated daily for 14 days with food relative to control; type: functional
[11] = system: Mycobacterium tuberculosis; experiment: Antimycobacterial activity against Mycobacterium tuberculosis H37Rv infected in CF-1 mouse assessed as change in survival time at 41 mg/kg administrated daily for 14 days with food relative to control; type: functional
[12] = system: Mycobacterium tuberculosis; experiment: Antimycobacterial activity against Mycobacterium tuberculosis H37Rv infected in CF-1 mouse assessed as change in survival time at 11 mg/kg administrated daily for 14 days with food relative to control; type: functional
[13] = system: Mycobacterium tuberculosis; experiment: Antimycobacterial activity against Mycobacterium tuberculosis H37Rv infected in CF-1 mouse assessed as change in survival time at 25 mg/kg administrated daily for 14 days with food relative to control; type: functional
Vero = experiment: Cytotoxicity against African green monkey Vero cells incubated for 72 hrs by MTT assay; type: cell-based, Chlorocebus sabaeus
[14] = Selectivity index, ratio of IC50 for African green monkey Vero cells to MIC for antitubercular activity against Mycobacterium tuberculosis H37Rv; type: toxicity; settings: vero
[15] = system: Mycobacterium tuberculosis; experiment: Antitubercular activity against Mycobacterium tuberculosis H37Rv ATCC 27294 assessed as growth inhibition at 12.5 ug/ml by microplate alamar blue assay relative to control; type: functional
[16] = system: Mycobacterium tuberculosis; experiment: Antitubercular activity against Mycobacterium tuberculosis H37Rv ATCC 27294 assessed as inhibition of [3H]-thymidine incorporation relative to control; type: functional
Plasmodium berghei = experiment: Antimalarial activity against Plasmodium berghei infected in albino mouse assessed survival against infection at 400 mg/kg, sc administered as single dose; type: functional
[17] = Drug excretion in rat urine at 400 mg/kg, sc administered as single dose measured after 30 days; type: ADME, organism-based; settings: read-out: Drug excretion
Mycobacterium leprae [18] = experiment: Anti-leprotic activity against Mycobacterium leprae subcultures at 4 weeks assessed as [3H]thymidine uptake per 5 times 10^7 cells at 0.025 mg/L (reference value: 1.28 +/- 0.14 pmol); type: functional
Mycobacterium leprae [19] = experiment: Inhibition of PGL1 synthesis in Mycobacterium leprae infected Swiss Webster mouse macrophages assessed as decrease in [U-14C]PA incorporation at 20 uM preincubated for 4 days post infection followed by [U-14C]PA addition and measured after 7 days by liquid scintillation counter analysis relative to control; type: functional
Mycobacterium leprae [20] = experiment: Anti-leprotic activity against Mycobacterium leprae subcultures at 4 weeks assessed as [3H]thymidine uptake per 5 times 10^7 cells at 0.01 mg/L (reference value: 1.28 +/- 0.14 pmol); type: functional
Mycobacterium leprae [21] = experiment: Antimicrobial activity against Mycobacterium leprae; type: functional
[22] = Drug concentration in rat blood at 400 mg/kg, sc administered as single dose; type: ADME, organism-based; settings: in vivo
[23] = system: Mycolicibacterium smegmatis; experiment: Antimycobacterial activity against DDS resistant Mycobacterium smegmatis ATCC 607 […]; type: functional
Mycobacterium leprae [24] = experiment: Anti-leprotic activity against Mycobacterium leprae subcultures at 4 weeks assessed as ATP level per 10^7 cells at 0.005 mg/L measured by bioluminescence assay (reference value: 462 +/- 64 pg); type: functional
Mycobacterium leprae [25] = experiment: Anti-leprotic activity against Mycobacterium leprae primary cultures at 4 weeks assessed as ATP level per 10^7 cells at 0.025 mg/L measured by bioluminescence assay (reference value: 314 +/- 46 pg); type: functional
Mycobacterium leprae [26] = experiment: Anti-leprotic activity against Mycobacterium leprae infected in albino mouse assessed survival against infection at 400 mg/kg, sc administered 58 days post-infection and subsequent compound dosing at 200 mg/kg at 0.5, 1 or 2 months interval; type: functional
[27] = system: Mycolicibacterium smegmatis; experiment: Antimycobacterial activity against DDS sensitive Mycobacterium smegmatis ATCC 607 […]; type: functional
Mycobacterium leprae [28] = experiment: Anti-leprotic activity against Mycobacterium leprae primary cultures at 4 weeks assessed as [3H]thymidine uptake per 5 times 10^7 cells at 0.005 mg/L (reference value: 0.95 +/- 0.01 pmol); type: functional
Mycobacterium leprae [29] = experiment: Anti-leprotic activity against Mycobacterium leprae infected in BALB/c mouse assessed as time delay in bacterial multiplication in footpad at 0.0001 g/100g of diet administered via feed starting 60 or 75 day post infection up to 90 days by Shepard's kinetic method; type: functional
Mycobacterium leprae [30] = experiment: Anti-leprotic activity against Mycobacterium leprae primary cultures at 4 weeks assessed as [3H]thymidine uptake per 5 times 10^7 cells at 0.01 mg/L (reference value: 0.95 +/- 0.01 pmol); type: functional
Mycobacterium leprae [31] = experiment: Anti-leprotic activity against Mycobacterium leprae primary cultures at 4 weeks assessed as ATP level per 10^7 cells at 0.01 mg/L measured by bioluminescence assay (reference value: 314 +/- 46 pg); type: functional
Mycobacterium leprae [32] = experiment: Anti-leprotic activity against Mycobacterium leprae primary cultures at 4 weeks assessed as ATP level per 10^7 cells at 0.005 mg/L measured by bioluminescence assay (reference value: 314 +/- 46 pg); type: functional
Mycobacterium leprae [33] = experiment: Anti-leprotic activity against Mycobacterium leprae subcultures at 4 weeks assessed as [3H]thymidine uptake per 5 times 10^7 cells at 0.005 mg/L (reference value: 1.28 +/- 0.14 pmol); type: functional
Mycobacterium leprae [34] = experiment: Anti-leprotic activity against Mycobacterium leprae primary cultures at 4 weeks assessed as [3H]thymidine uptake per 5 times 10^7 cells at 0.025 mg/L (reference value: 0.95 +/- 0.01 pmol); type: functional
Rattus norvegicus = experiment: Effect of metallo-protein haemoglobin in rat assessed as peak methemoglobin level at 400 mg/kg, sc administered as single dose; type: ADME, organism-based; settings: in vivo
Mycobacterium leprae [35] = experiment: Anti-leprotic activity against Mycobacterium leprae subcultures at 4 weeks assessed as ATP level per 10^7 cells at 0.025 mg/L measured by bioluminescence assay (reference value: 462 +/- 64 pg); type: functional
Mycobacterium leprae [36] = experiment: Inhibition of PGL1 synthesis in Mycobacterium leprae infected Swiss Webster mouse macrophages assessed as decrease in [U-14C]PA incorporation at 2 uM preincubated for 4 days post infection followed by [U-14C]PA addition and measured after 7 days by liquid scintillation counter analysis relative to control; type: functional
Mycobacterium leprae [37] = experiment: Anti-leprotic activity against Mycobacterium leprae subcultures at 4 weeks assessed as ATP level per 10^7 cells at 0.01 mg/L measured by bioluminescence assay (reference value: 462 +/- 64 pg); type: functional
Mycobacterium leprae [38] = experiment: Anti-leprotic activity against Mycobacterium leprae infected in 538 CBA mouse assessed as number of Mycobacterium leprae in paw pads at 2 mg/kg administrated via gastric tube 5 times a week and measured 7 months post infection; type: functional
[39] = system: Mycobacterium tuberculosis; experiment: Antimycobacterial activity against Mycobacterium tuberculosis H37Rv infected in CF-1 mouse assessed as change in survival time at 42 mg/kg administrated daily for 14 days with food relative to control; type: functional
[40] = system: Mycobacterium tuberculosis; experiment: Antimycobacterial activity against Mycobacterium tuberculosis H37Rv infected in CF-1 mouse assessed as change in survival time at 24 mg/kg administrated daily for 14 days with food relative to control; type: functional
[41] = system: Mycobacterium tuberculosis; experiment: Antimycobacterial activity against Mycobacterium tuberculosis H37Rv infected in CF-1 mouse assessed as change in survival time at 8 mg/kg administrated daily for 14 days with food relative to control; type: functional
[42] = system: Mycobacterium tuberculosis; experiment: Antimycobacterial activity against Mycobacterium tuberculosis H37Rv infected in CF-1 mouse assessed as change in survival time at 12 mg/kg administrated daily for 14 days with food relative to control; type: functional
[43] = system: Mycobacterium tuberculosis; experiment: Antimycobacterial activity against Mycobacterium tuberculosis H37Rv infected in CF-1 mouse assessed as change in survival time at 3 mg/kg administrated daily for 14 days with food relative to control; type: functional

Clc1ccc(/N=N/c2ccc(NCCCN3CCCCC3)c3c2CCCC3)cc1
MST [1]: 11 days
MST [2]: 78 days
MST [3]: 42 days
MST [4]: 33 days

CCN(CC)C(=S)Sc1ncc([N+](=O)[O-])cc1C#N
Activity (Mycobacterium leprae [5]): 0.042 ×10⁷ No_unit
Activity (Mycobacterium leprae [6]): 0.06 ×10⁵ No_unit
Activity (Mycobacterium leprae [7]): 0.56 ×10⁵ No_unit

Nc1ccc(C(=O)O)c(O)c1 [AMINOSALICYLIC ACID]
MST [1]: 17 days
MST [8]: 26 days
MST [9]: 52 days
MST [10]: 25 days

c1ccc(/N=N/c2ccc(NCCCN3CCCCC3)c3c2CCCC3)cc1
MST [11]: 50 days
MST [12]: 13 days
MST [13]: 37 days

Clc1nc(-c2ccccc2)c2ncn(Cc3ccccc3)c2n1
IC50 (Vero): Nd(Insoluble)
Selectivity Index [14]: Nd(Insoluble)
inhibition at 12.5 µg/mL [15]: > 90%
inhibition (INH) [16]: 76%

Nc1ccc(S(=O)(=O)c2ccc(N)cc2)cc1 [DAPSONE]
Survival (Plasmodium berghei): <1 weeks
dose excreted at 720 h [17]: 57%
Activity (Mycobacterium leprae [18]): 0 pmol
inhibition at 20 µM (Mycobacterium leprae [19]): 91%
Activity (Mycobacterium leprae [20]): 0.92 pmol
MIC (Mycobacterium leprae [21]): 15 µg/mL (≈ 60.4 µM)
Drug uptake [22]: 13.8 µg/mL
MIC [23]: 3220 µg/mL (≈ 13000 µM)
Activity (Mycobacterium leprae [24]): 514 pg
Activity (Mycobacterium leprae [25]): 0 pg
Survival (Mycobacterium leprae [26]): 2 weeks
MIC [27]: 8.1 µg/mL (≈ 32.6 µM)
Activity (Mycobacterium leprae [28]): 0.98 pmol
Time (Mycobacterium leprae [29]): >91 days
Activity (Mycobacterium leprae [30]): 0.79 pmol
Activity (Mycobacterium leprae [31]): 307 pg
Activity (Mycobacterium leprae [32]): 334 pg
Activity (Mycobacterium leprae [33]): 1.37 pmol
Activity (Mycobacterium leprae [34]): 0 pmol
Activity (Rattus norvegicus): 3.9 g/dL
Activity (Mycobacterium leprae [35]): 0 pg
inhibition at 2 µM (Mycobacterium leprae [36]): 92%
Activity (Mycobacterium leprae [37]): 396 pg
Activity (Mycobacterium leprae [38]): 0.025 ×10⁷ No_unit
Activity (Mycobacterium leprae [6]): 0.22 ×10⁵ No_unit
Activity (Mycobacterium leprae [7]): 0.27 ×10⁵ No_unit

COc1ccc(/N=N/c2ccc(NCCCN3CCCCC3)c3c2CCCC3)cc1
MST [8]: 11 days
MST [39]: 50 days
MST [40]: 26 days
MST [41]: 13 days

COc1ccc(/N=N/c2ccc(NCCCN3CCCCC3)c3c2CCCC3)cn1
MST [40]: 46 days
MST [42]: 31 days
MST [4]: 13 days
MST [43]: 10 days
